The text below walks through data of ChEMBL document CHEMBL1143484, “Discovery of 1-amino-4-phenylcyclohexane-1-carboxylic acid and its influence on agonist selectivity between human melanocortin-4 and -1 receptors in linear pentapeptides” (Bioorg Med Chem Lett, 2005).

Structures are written as SMILES. Non-standard residues stand in square brackets, D forms with d. Residues, ends and D or L forms follow the SMILES beside them. *: point of attachment. Butyryl = CCCC(=O)*

For test [1], the target named is T1, Melanocortin receptor 4 (Homo sapiens, UniProt P32245). Nature of the test: Effective concentration for cAMP accumulation mediated by human Melanocortin 4 receptor in HEK293 cells. It counts as functional, cell-based.
T1 sequence (P32245 whole entry): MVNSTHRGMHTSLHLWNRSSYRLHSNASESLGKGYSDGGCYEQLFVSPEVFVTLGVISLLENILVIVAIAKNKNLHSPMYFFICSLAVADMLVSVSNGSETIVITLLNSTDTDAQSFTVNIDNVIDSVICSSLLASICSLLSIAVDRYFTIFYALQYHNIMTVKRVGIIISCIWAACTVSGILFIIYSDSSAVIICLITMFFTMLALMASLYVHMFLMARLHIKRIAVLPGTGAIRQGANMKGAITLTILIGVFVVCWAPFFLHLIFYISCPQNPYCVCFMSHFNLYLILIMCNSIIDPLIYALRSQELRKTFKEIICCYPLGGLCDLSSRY
In test [2] the target is T2, Melanocyte-stimulating hormone receptor (Homo sapiens, UniProt Q01726). Description: Concentration (50 uM) required for cAMP accumulation mediated by human Melanocortin 1 receptor in HEK293 cells. The test is classed as functional, cell-based. For orientation: Changes in cAMP serve as a functional read-out for many G protein-coupled receptors.
Target sequence in this assay (Q01726 whole entry, looked up): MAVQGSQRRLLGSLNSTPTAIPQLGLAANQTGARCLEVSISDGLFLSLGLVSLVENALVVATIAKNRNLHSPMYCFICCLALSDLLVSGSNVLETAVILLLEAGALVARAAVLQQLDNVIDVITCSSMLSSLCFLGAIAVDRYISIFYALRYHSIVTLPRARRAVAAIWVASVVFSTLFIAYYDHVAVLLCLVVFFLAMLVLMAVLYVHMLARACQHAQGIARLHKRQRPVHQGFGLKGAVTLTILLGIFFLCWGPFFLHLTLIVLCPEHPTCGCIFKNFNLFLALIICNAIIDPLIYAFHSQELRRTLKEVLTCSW
In test [3] the target is Melanocortin receptor 3 (Homo sapiens) (UniProt P41968). Nature of the test: Concentration (50 uM) required for cAMP accumulation mediated by human Melanocortin 3 receptor in HEK293 cells. It counts as functional, cell-based.
Chain of Melanocortin receptor 3 (Homo sapiens) (P41968 whole entry): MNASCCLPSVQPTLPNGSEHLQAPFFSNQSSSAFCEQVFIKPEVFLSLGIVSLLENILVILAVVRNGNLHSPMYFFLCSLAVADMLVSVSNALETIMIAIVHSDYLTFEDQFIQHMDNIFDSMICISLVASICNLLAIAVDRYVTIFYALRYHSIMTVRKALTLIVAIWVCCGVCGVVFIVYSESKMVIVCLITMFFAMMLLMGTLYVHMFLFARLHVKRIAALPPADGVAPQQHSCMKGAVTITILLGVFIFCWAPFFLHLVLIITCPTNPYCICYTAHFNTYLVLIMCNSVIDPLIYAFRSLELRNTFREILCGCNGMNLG
Test [4] deals with Melanocortin receptor 5 (Homo sapiens) (UniProt P33032). Nature of the test: Concentration (50 uM) required for cAMP accumulation mediated by human Melanocortin 5 receptor in HEK293 cells. The test is classed as functional, cell-based.
Chain of Melanocortin receptor 5 (Homo sapiens) (P33032 whole entry): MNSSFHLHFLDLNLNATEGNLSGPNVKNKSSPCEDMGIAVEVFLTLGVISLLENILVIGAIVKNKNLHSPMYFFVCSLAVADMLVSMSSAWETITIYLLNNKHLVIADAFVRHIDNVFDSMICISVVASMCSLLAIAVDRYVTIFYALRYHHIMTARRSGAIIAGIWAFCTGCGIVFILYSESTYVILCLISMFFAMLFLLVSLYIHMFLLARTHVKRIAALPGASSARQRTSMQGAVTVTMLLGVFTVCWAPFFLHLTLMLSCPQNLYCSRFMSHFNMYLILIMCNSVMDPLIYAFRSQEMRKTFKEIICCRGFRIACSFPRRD
The target in test [5] is T2, Melanocyte-stimulating hormone receptor. Nature of the test: Binding affinity towards human Melanocortin 1 receptor using radiolabeled NDP-MSH displacement.
Target sequence in this assay (Q01726 whole entry): as the sequence (Q01726 whole entry, looked up) above
Test [6] has as its target T1, Melanocortin receptor 4. Nature of the test: Binding affinity towards human Melanocortin 4 receptor using radiolabeled NDP-MSH displacement.
In test [7] the target is T2, Melanocyte-stimulating hormone receptor. Description: Effective concentration required for cAMP accumulation mediated by human Melanocortin 1 receptor in HEK293 cells. It counts as functional, cell-based.
Target sequence in this assay (Q01726 whole entry): as the sequence (Q01726 whole entry, looked up) above
Test [8] deals with T1, Melanocortin receptor 4. Description: Concentration (50 uM) required for cAMP accumulation mediated by human Melanocortin 4 receptor in HEK293 cells. It counts as functional, cell-based.

By EC50 is commonly meant the concentration that produces a half-maximal response. Read a low EC50 as an effect from little substance. For the compound `CCCCC(=O)N[C@]1(C(=O)NC(Cc2ccccc2)C(=O)NC(CCCN=C(N)N)C(=O)N[C@@H](Cc2c[nH]c3ccccc23)C(=O)NCC(N)=O)CC[C@H](c2ccc(C)cc2)CC1` (single isomer, unassigned), the EC50 at Melanocortin receptor 4 [1] is 3 nM. Besides, in test [2], the cAMP accumulation at 50 uM came to 55%.

Take `CCCCC(=O)N[C@]1(C(=O)N[C@H](Cc2ccccc2)C(=O)N[C@@H](CCCNC(=N)N)C(=O)N[C@@H](Cc2c[nH]c3ccccc23)C(=O)NCC(N)=O)CC[C@H](c2ccc(OC(C)C)cc2)CC1`: the EC50 on Melanocortin receptor 4 [1] came to 6 nM.

In the case of `CCCCC(=O)N[C@]1(C(=O)N[C@H](Cc2ccccc2)C(=O)N[C@@H](CCCN=C(N)N)C(=O)N[C@@H](Cc2c[nH]c3ccccc23)C(=O)NCC(N)=O)CC[C@H](c2ccc(OCC)cc2)CC1`, the cAMP accumulation at 50 uM in test [2] stood at 0%. In addition, the Accumulation came out at 28% in test [3] and 46% in test [4].

On to `CCCC(=O)N[C@@H](Cc1c[nH]cn1)C(=O)N[C@H](Cc1ccccc1)C(=O)N[C@@H](CCCN=C(N)N)C(=O)N[C@@H](Cc1c[nH]c2ccccc12)C(=O)NCC(N)=O` (Butyryl-H[dF]RWG-NH2), for which the Accumulation in test [3] and in test [4] was 0% throughout.

`CCCCC(=O)N[C@]1(C(=O)N[C@H](Cc2ccccc2)C(=O)N[C@@H](CCCN=C(N)N)C(=O)N[C@@H](Cc2c[nH]c3ccccc23)C(=O)NCC(N)=O)CC[C@H](c2ccc(OC(C)C)cc2)CC1` gave a cAMP accumulation at 50 uM in test [2] of 60%.

The IC50 is the point on the concentration scale where inhibition reaches its midpoint. Compound `CCCCC(=O)N[C@]1(C(=O)N[C@H](Cc2ccccc2)C(=O)N[C@@H](CCCNC(=N)N)C(=O)N[C@@H](Cc2c[nH]c3ccccc23)C(=O)NCC(N)=O)CC[C@H](c2ccc(OCC)cc2)CC1` gave an EC50 on Melanocortin receptor 4 [1] of 13 nM. Also, the IC50 in test [5] turned out to be 4700 nM; at Melanocortin receptor 4 [6], 43 nM.

For the compound `CCCCC(=O)N[C@]1(C(=O)N[C@H](Cc2ccccc2)C(=O)N[C@@H](CCCNC(=N)N)C(=O)N[C@@H](Cc2c[nH]c3ccccc23)C(=O)NCC(N)=O)CC[C@H](c2ccc(O)cc2)CC1`, the values for the EC50 (on Melanocortin receptor 4 [1]; in test [7]) were 5 nM and 1300 nM, respectively.

With `CCCCC(=O)N[C@]1(C(=O)N[C@H](Cc2ccccc2)C(=O)N[C@@H](CCCNC(=N)N)C(=O)N[C@@H](Cc2c[nH]c3ccccc23)C(N)=O)CC[C@H](c2ccccc2)CC1`, the EC50 came to 130 nM at Melanocortin receptor 4 [1] and 1300 nM in test [7].

In turn, `CCCCC(=O)N[C@]1(C(=O)NC(Cc2ccccc2)C(=O)NC(CCCN=C(N)N)C(=O)N[C@@H](Cc2c[nH]c3ccccc23)C(=O)NCC(N)=O)CC[C@H](c2ccc(OC)cc2)CC1` (single isomer, unassigned) had an EC50 on Melanocortin receptor 4 [1] of 9 nM. The compound further yielded a cAMP accumulation at 50 uM in test [2] of 0%.

Compound `NC(=O)CNC(=O)[C@H](Cc1c[nH]c2ccccc12)NC(=O)[C@H](CCCN=C(N)N)NC(=O)[C@@H](Cc1ccccc1)NC(=O)[C@H]1CC[C@H](c2ccccc2)CC1` displayed an EC50 at Melanocortin receptor 4 [1] of 550 nM. Besides, in test [2], the cAMP accumulation at 50 uM came out at 60%.

Consider `CCCCC(=O)N[C@]1(C(=O)N[C@H](Cc2ccccc2)C(=O)N[C@@H](CCCNC(=N)N)C(=O)N[C@@H](Cc2c[nH]c3ccccc23)C(=O)NCC(N)=O)CC[C@H](c2ccccc2)CC1`, for which, at Melanocortin receptor 4 [1], the EC50 is 2 nM. Besides, the values for the IC50 (in test [5]; at Melanocortin receptor 4 [6]) were 7100 nM and 13 nM, respectively.

As to `CCCCC(=O)N[C@]1(C(=O)N[C@H](Cc2ccccc2)C(=O)N[C@@H](CCCN=C(N)N)C(=O)N[C@@H](Cc2c[nH]c3ccccc23)C(=O)NCC(N)=O)CC[C@H](c2cc(CCC)cc(CCC)c2)CC1`, in test [7], a half-maximal response (EC50) required 210 nM. This compound also showed an Accumulation on Melanocortin receptor 4 [8] of 60%.

Regarding `CCCCC(=O)N[C@]1(C(=O)N[C@H](Cc2ccccc2)C(=O)N[C@@H](CCCN=C(N)N)C(=O)N[C@@H](Cc2c[nH]c3ccccc23)C(=O)NCC(N)=O)CC[C@H](c2ccccc2)CC1`, the cAMP accumulation at 50 uM in test [2] was determined as 25%. The Accumulation in test [3] worked out at 57%; in test [4], 36%.

Compound `CCCCC(=O)N[C@]1(C(=O)N[C@H](Cc2ccccc2)C(=O)N[C@@H](CCCN=C(N)N)C(=O)N[C@@H](Cc2c[nH]c3ccccc23)C(=O)NCC(N)=O)CC[C@H](c2ccc(Cl)cc2)CC1` came in with a cAMP accumulation at 50 uM in test [2] of 45%.

In turn, `CCCCC(=O)N[C@]1(C(=O)N[C@H](Cc2ccccc2)C(=O)N[C@@H](CCCNC(=N)N)C(=O)N[C@@H](Cc2c[nH]c3ccccc23)C(=O)NCC(N)=O)CC[C@H](c2ccc(Cl)cc2)CC1` registered an EC50 at Melanocortin receptor 4 [1] of 4 nM.

As for `CCCCC(=O)N[C@]1(C(=O)NC(Cc2ccccc2)C(=O)NC(CCCN=C(N)N)C(=O)N[C@@H](Cc2c[nH]c3ccccc23)C(=O)NCC(N)=O)CC[C@@H](c2ccccc2)CC1` (single isomer, unassigned), the EC50 at Melanocortin receptor 4 [1] was 88 nM; in test [7], 1300 nM.

As to `CCCCC(=O)N[C@]1(C(=O)N[C@H](Cc2ccccc2)C(=O)N[C@@H](CCCNC(=N)N)C(=O)N[C@@H](Cc2c[nH]c3ccccc23)C(=O)NCC(N)=O)CC[C@H](c2cccc(OC)c2)CC1`, the EC50 at Melanocortin receptor 4 [1] stood at 2 nM; in test [7], 690 nM.

Turning to `CCCCC(=O)N[C@@]1(C(=O)N[C@H](Cc2ccccc2)C(=O)N[C@@H](CCCN=C(N)N)C(=O)N[C@@H](Cc2c[nH]c3ccccc23)C(=O)NCC(N)=O)CCc2ccccc2C1`, the figures for the EC50 (on Melanocortin receptor 4 [1]; in test [7]) were 45 nM and 830 nM, respectively.
